pIC50: −log10 of the molar value. Each block holds one compound with its values, some of them ahead of it.
Tests used:
[1] = biological target: T1, Tyrosine-protein kinase SYK (Homo sapiens, UniProt P43405); assay: Inhibition of Syk (unknown origin) preincubated for 20 mins followed by 33P-gamma-ATP measured after 120 mins by HotSpot assay
Ramos = assay: Inhibition of […] in serum-starved human Ramos cells incubated for 1 hr followed by anti-human IgM F(ab)2 measured after 5 mins; format: functional, cell-based
MV4-11 [2] = assay: Inhibition of cell viability in human MV4-11 cells incubated for 72 hrs by Cell Titer Glo assay; format: functional, cell-based; details: MV4-11, 72 h
[3] = Metabolic stability in human liver microsomes assessed as intrinsic clearance at […] incubated for 60 mins in presence of NADPH by LC-MS/MS analysis; format: ADME, Microsome; details: read-out: CLH
[4] = Metabolic stability in human liver microsomes assessed as half life at […] incubated for 60 mins in presence of NADPH by LC-MS/MS analysis; format: ADME, Microsome
[5] = Half life in fasted Sprague-Dawley rat at 1 mg/kg, iv measured for 24 hrs by LC-MS/MS analysis; format: ADME, organism-based; details: in vivo
[6] = C0 in fasted Sprague-Dawley rat at 1 mg/kg, iv measured for 24 hrs by LC-MS/MS analysis; format: ADME, organism-based; details: in vivo
[7] = AUC in fasted Sprague-Dawley rat at 1 mg/kg, iv measured for 24 hrs by LC-MS/MS analysis; format: ADME, organism-based; details: in vivo
[8] = Clearance in fasted Sprague-Dawley rat at 1 mg/kg, iv measured for 24 hrs by LC-MS/MS analysis; format: ADME, organism-based; details: in vivo
[9] = Volume of distribution at steady state in fasted Sprague-Dawley rat at 1 mg/kg, iv measured for 24 hrs by LC-MS/MS analysis; format: ADME, organism-based; details: in vivo, read-out: Vdss
[10] = biological target: T1, Tyrosine-protein kinase SYK; assay: Inhibition of Syk (unknown origin) assessed as enzyme activity at 2 uM preincubated for 20 mins followed by 33P-gamma-ATP measured after 120 mins by HotSpot assay relative to control; design: scale not given: the % may be the effect or the level left; details: time 140.0 min
[11] = Half life in fasted Sprague-Dawley rat at 10 mg/kg, po measured for 24 hrs by LC-MS/MS analysis; format: ADME, organism-based; details: in vivo
[12] = Tmax in fasted Sprague-Dawley rat at 10 mg/kg, po measured for 24 hrs by LC-MS/MS analysis; format: ADME, organism-based; details: in vivo
[13] = Cmax in fasted Sprague-Dawley rat at 10 mg/kg, po measured for 24 hrs by LC-MS/MS analysis; format: ADME, organism-based; details: in vivo
[14] = AUC in fasted Sprague-Dawley rat at 10 mg/kg, po measured for 24 hrs by LC-MS/MS analysis; format: ADME, organism-based; details: in vivo
[15] = Oral bioavailability in fasted Sprague-Dawley rat at 10 mg/kg measured for 24 hrs by LC-MS/MS analysis; format: ADME, organism-based; details: in vivo
Rec1 = assay: Antiproliferative activity against human REC1 cells assessed as inhibition of cell viability incubated for 72 hrs by Cell Titer Glo assay; format: functional, cell-based; details: Rec1, 72 h
DOHH-2 = assay: Antiproliferative activity against human DOHH-2 cells assessed as inhibition of cell viability incubated for 72 hrs by Cell Titer Glo assay; format: functional, cell-based; details: DOHH-2, 72 h
SU-DHL-6 = assay: Antiproliferative activity against human SU-DHL-6 cells assessed as inhibition of cell viability incubated for 72 hrs by Cell Titer Glo assay; format: functional, cell-based; details: SU-DHL-6, 72 h
Daudi = assay: Antiproliferative activity against human Daudi cells assessed as inhibition of cell viability incubated for 72 hrs by Cell Titer Glo assay; format: functional, cell-based
TMD8 = assay: Antiproliferative activity against human TMD8 cells assessed as inhibition of cell viability incubated for 72 hrs by Cell Titer Glo assay; format: functional, cell-based; details: TMD8, 72 h
[16] = biological target: T1, Tyrosine-protein kinase SYK; assay: Inhibition of SYK phosphorylation in human Ramos cells incubated for 2 hrs by Western blot analysis; format: cell-based; details: dose <= 500.0 nM
[17] = biological target: T1, Tyrosine-protein kinase SYK; assay: Inhibition of SYK in human Ramos cells assessed as decrease in PLC-gamma-2 phosphorylation incubated for 2 hrs by Western blot analysis; format: cell-based; details: dose <= 500.0 nM
MV4-11 [18] = assay: Antitumor activity against human MV4-11 cells xenografted in nude BALB/c mouse assessed as tumor growth inhibition at 1 mg/kg, iv qd for 21 days administered consecutively relative to control; format: functional; details: MV4-11, 504 h, time 21 day, read-out: TGI
[19] = Toxicity in nude BALB/c mouse xenografted with human MV4-11 cells assessed as body weight loss at 1 mg/kg, iv qd for 21 days administered consecutively; format: organism-based; details: in vivo, 504 h, time 21 day
[20] = Toxicity in nude BALB/c mouse xenografted with human MV4-11 cells assessed as animal mortality at 1 mg/kg, iv qd for 21 days administered consecutively; format: organism-based; details: in vivo, 504 h, time 21 day
[21] = Toxicity in nude BALB/c mouse xenografted with human MV4-11 cells assessed as systemic cytotoxicity at 1 mg/kg, iv qd for 21 days administered consecutively; format: organism-based; details: in vivo, 504 h, time 21 day

Structure (SMILES): COc1cccc2[nH]c(-c3n[nH]cc3Nc3ncnc4[nH]ccc34)nc12
pIC50 [1]: 8.08
pIC50 (Ramos): 7.53
pIC50 (MV4-11 [2]): 8.48
microsomal CLint [3]: 14.3 µL/min/mg
half-life [4]: 1.62 h

Structure (SMILES): c1ccc2[nH]c(-c3n[nH]cc3Nc3ncnc4ccccc34)nc2c1
pIC50 [1]: 6.97

Structure (SMILES): CCN(CC)CCNc1nccc(Nc2c[nH]nc2-c2nc3ccccc3[nH]2)n1
Activity [10]: 40.5%

Structure (SMILES): CN(C)CCN(C)c1ccc2[nH]c(-c3n[nH]cc3Nc3ncnc4[nH]ccc34)nc2c1
pIC50 [1]: 8.49
pIC50 (Ramos): 7.44
pIC50 (MV4-11 [2]): 8.03
microsomal CLint [3]: 15.9 µL/min/mg
half-life [4]: 1.45 h

Structure (SMILES): Cc1ccc2[nH]c(-c3n[nH]cc3Nc3ncnc4[nH]ccc34)nc2c1
pIC50 [1]: 8.03

Structure (SMILES): c1ccc2[nH]c(-c3n[nH]cc3NC3CCNCC3)nc2c1
Activity [10]: 82.7%

Structure (SMILES): c1ccc2[nH]c(-c3n[nH]cc3Nc3ccnc(NCC4CCCCC4)n3)nc2c1
Activity [10]: 47.9%

Structure (SMILES): CC(C)N1CCN(c2ccc3[nH]c(-c4n[nH]cc4Nc4ncnc5[nH]ccc45)nc3c2)CC1
pIC50 [1]: 9.28
pIC50 (Ramos): 7.74
pIC50 (MV4-11 [2]): 8.82
microsomal CLint [3]: 15.4 µL/min/mg
half-life [4]: 1.88 h
half-life [5]: 6.4 h
C0 at 24 h [6]: 1240 ng/mL
AUC at 24 h [7]: 514 ng·h/mL
clearance [8]: 33.3 mL/min/kg
Vd [9]: 8.93 L/kg
half-life [11]: 3.79 h
Tmax [12]: 0.833 h
Cmax [13]: 18.1 ng/mL
AUC at 24 h [14]: 78.8 ng·h/mL
bioavailability [15]: 1.5%
pIC50 (Rec1): 7.46
pIC50 (DOHH-2): 8.06
pIC50 (SU-DHL-6): 6.67
pIC50 (Daudi): 6.14
pIC50 (TMD8): 7.96
inhibition [16]: Dose-Dependent Effect
inhibition [17]: Dose-Dependent Effect
inhibition in vivo at 1 mg/kg (MV4-11 [18]): 99.3%
Activity [19]: Non-Toxic
Activity [20]: Non-Toxic
Activity [21]: Non-Toxic

Structure (SMILES): Cc1cc2nc(-c3n[nH]cc3Nc3ccnc4[nH]ccc34)[nH]c2cc1C
pIC50 [1]: 7.55

Structure (SMILES): O=C(Nc1nccc(Nc2c[nH]nc2-c2nc3ccccc3[nH]2)n1)c1ccccc1
pIC50 [1]: 6.28

Structure (SMILES): c1cc(N2CCCCC2)c2nc(-c3n[nH]cc3Nc3ncnc4[nH]ccc34)[nH]c2c1
pIC50 [1]: 7.24

Structure (SMILES): Cc1cc2nc(-c3n[nH]cc3Nc3ncnc4[nH]ccc34)[nH]c2cc1C
pIC50 [1]: 8.44
pIC50 (Ramos): 7.32
pIC50 (MV4-11 [2]): 7.53
microsomal CLint [3]: 70.4 µL/min/mg
half-life [4]: 0.328 h

Further lines, results first:

pIC50 [1]: 8.07
pIC50 (Ramos): 7.11
pIC50 (MV4-11 [2]): 7.44
microsomal CLint [3]: 75.1 µL/min/mg
half-life [4]: 0.308 h
Structure (SMILES): CCN(CC)c1ccc2[nH]c(-c3n[nH]cc3Nc3ncnc4[nH]ccc34)nc2c1

pIC50 [1]: 6.81
Structure (SMILES): Cc1nc(Nc2c[nH]nc2-c2nc3cc(C)c(C)cc3[nH]2)c2cc[nH]c2n1

pIC50 [1]: 8.80
pIC50 (Ramos): 7.31
pIC50 (MV4-11 [2]): 8.10
microsomal CLint [3]: 13.2 µL/min/mg
half-life [4]: 1.75 h
half-life [5]: 2.47 h
C0 at 24 h [6]: 763 ng/mL
AUC at 24 h [7]: 332 ng·h/mL
clearance [8]: 51.7 mL/min/kg
Vd [9]: 6.99 L/kg
Structure (SMILES): CN1CCN(c2ccc3[nH]c(-c4n[nH]cc4Nc4ncnc5[nH]ccc45)nc3c2)CC1

pIC50 [1]: 8.25
pIC50 (Ramos): 7.41
pIC50 (MV4-11 [2]): 7.96
microsomal CLint [3]: 14.2 µL/min/mg
half-life [4]: 1.63 h
Structure (SMILES): Cc1cccc2[nH]c(-c3n[nH]cc3Nc3ncnc4[nH]ccc34)nc12

pIC50 [1]: 7.47
Structure (SMILES): Fc1ccc2[nH]c(-c3n[nH]cc3Nc3ncnc4[nH]ccc34)nc2c1

pIC50 [1]: 8.96
pIC50 (Ramos): 7.51
pIC50 (MV4-11 [2]): 7.91
microsomal CLint [3]: 63.9 µL/min/mg
half-life [4]: 0.453 h
Structure (SMILES): c1nc(Nc2c[nH]nc2-c2nc3cc(OCCN4CCOCC4)ccc3[nH]2)c2cc[nH]c2n1

Activity [10]: 91.2%
Structure (SMILES): Clc1cc(Nc2c[nH]nc2-c2nc3ccccc3[nH]2)nc(N2CCOCC2)n1

pIC50 [1]: 8.52
pIC50 (Ramos): 7.33
pIC50 (MV4-11 [2]): 8.31
microsomal CLint [3]: 16.4 µL/min/mg
half-life [4]: 1.41 h
Structure (SMILES): C[C@@H]1CN(c2ccc3[nH]c(-c4n[nH]cc4Nc4ncnc5[nH]ccc45)nc3c2)C[C@H](C)O1

pIC50 [1]: 8.26
pIC50 (Ramos): 7.10
pIC50 (MV4-11 [2]): 7.56
Structure (SMILES): COCCOc1ccc2[nH]c(-c3n[nH]cc3Nc3ncnc4[nH]ccc34)nc2c1

pIC50 [1]: 5.75
Structure (SMILES): c1ccc2[nH]c(-c3n[nH]cc3NCc3ccncc3)nc2c1

pIC50 [1]: 7.95
pIC50 (Ramos): 7.73
pIC50 (MV4-11 [2]): 7.69
microsomal CLint [3]: 52.2 µL/min/mg
half-life [4]: 0.555 h
Structure (SMILES): CN(C)c1cccc2[nH]c(-c3n[nH]cc3Nc3ncnc4[nH]ccc34)nc12
